Residues, ends and D or L forms follow the SMILES beside them.
Assays:
Assay type in all cases: cell-based
Candida kefyr ATCC 37095 = conditions: ATCC 37095, 3 h
Excerpt: (§1) Ten organisms obtained from the American Type Culture Collection (ATCC; Rockville, MD) were used for antimicrobial assays. Four Gram-negative bacteria included Escherichia coli ATCC 25922, Pseudomonas aeruginosa ATCC 27853, Klebsiella oxytoca ATCC 49131, and Proteus vulgaris ATCC 49132. The three Gram-positive bacteria were Staphylococcus aureus 29213, Micrococcus luteus ATCC 49,732, and Enterococcus faecalis ATCC 29212. The three fungi were Candida albicans ATCC 37092, Candida kefyr ATCC 37095, and Candida tropicalis ATCC 37097. The clinical isolates were obtained from Singapore General Hospital (SGH). They are Enterococcus faecium, Staphylococcus aureus, Klebsiella pneumoniae, Acinetobacter baumannii, Pseudomonas aeruginosa, and Enterobacter species. The strains were incubated in trypticase soy broth (TSB), which was prepared in double distilled water and autoclaved for sterilization. TSB was purchased from Becton-Dickinson (Cockeysville, MD, USA).
(§2) Antimicrobial Assays. A sensitive and reproducible two-stage radial diffusion antimicrobial assay of Lehrer et al. was employed. A 1–4 × 10^6 colony-forming unit/mL of the test organism was mixed with 10 mL of molten underlay gel solution and poured into Petri dishes to form a uniform layer. The gel solution consisted of 10 mM sodium phosphate buffer, 0.03% TSB, and 0.02% Tween-20, with the addition of 100 mM NaCl in the case of high-salt conditions. Upon gel solidification, gel wells were made by a 3-mm diameter template in an evenly spaced array. A 5 µL aliquot of a serial half-log dilution of test peptides at seven concentrations was added to each well after removal of gel plugs. The dishes were incubated at 37 °C for 3 h to allow peptide diffusion into the underlay gels. Gels were overlaid with 10 mL of 1% agarose in 6% TSB (wt/vol). After additional incubation at 37 °C for 16–24 h, the diameter of the clear zone surrounding the wells (colony-free) was measured under a microscope. Antimicrobial activities were expressed in units (0.1 mm = 1 unit), and the MICs (in µM) were determined from the x-intercepts of the dose-response curves. Experiments were performed in triplicates.

[1] = tested on: Candida tropicalis ATCC 37097; conditions: ATCC 37097, 3 h
Excerpt: as §1, §2

[2] = tested on: Proteus vulgaris ATCC 49132; conditions: ATCC 49132, 3 h
Excerpt: as §1, §2

[3] = tested on: Staphylococcus aureus 29213; conditions: 29213, 3 h
Excerpt: as §1, §2

[4] = tested on: Klebsiella oxytoca ATCC 49131; conditions: ATCC 49131, 3 h
Excerpt: as §1, §2

[5] = tested on: Candida albicans ATCC 37092; conditions: ATCC 37092, 3 h
Excerpt: as §1, §2

[6] = tested on: Escherichia coli ATCC 25922; conditions: ATCC 25922, 3 h
Excerpt: as §1, §2

[7] = tested on: Pseudomonas aeruginosa ATCC 27853; conditions: ATCC 27853, 3 h
Excerpt: as §1, §2

[8] = tested on: Enterococcus faecalis ATCC 29212; conditions: ATCC 29212, 3 h
Excerpt: as §1, §2

[9] = tested on: Micrococcus luteus ATCC 49,732; conditions: ATCC 49, 3 h
Excerpt: as §1, §2

MIC, C. kefyr, H-Salt (Candida kefyr ATCC 37095) [µM]	MIC, C. kefyr, L-Salt (Candida kefyr ATCC 37095) [µM]	MIC, C. tropicalis, H-Salt [1] [µM]	MIC, C. tropicalis, L-Salt [1] [µM]	MIC, P. vulgaris, H-Salt [2] [µM]	MIC, P. vulgaris, L-Salt [2] [µM]	MIC, S. aureus, H-Salt [3] [µM]	MIC, S. aureus, L-Salt [3] [µM]	MIC, K. oxytoca, H-Salt [4] [µM]	MIC, K. oxytoca, L-Salt [4] [µM]	MIC, C. albicans, H-Salt [5] [µM]	MIC, C. albicans, L-Salt [5] [µM]	MIC, E. coli, H-Salt [6] [µM]	MIC, E. coli, L-Salt [6] [µM]	MIC, P. aeruginosa, H-Salt [7] [µM]	MIC, P. aeruginosa, L-Salt [7] [µM]	MIC, E. faecalis, H-Salt [8] [µM]	MIC, E. faecalis, L-Salt [8] [µM]	MIC, M. luteus, H-Salt [9] [µM]	MIC, M. luteus, L-Salt [9] [µM]	SMILES
0.9	0.9	1.3	1.1	0.7	1.2	0.7	0.8	1.3	0.9	0.8	0.7	0.6	0.7	0.8	0.8	1.4	1.3	0.8	0.6	CC(C)C[C@H](NC(=O)[C@@H](N)CCCNC(=N)N)C(=O)N[C@@H](Cc1ccc(O)cc1)C(=O)N[C@@H](CCCNC(=N)N)C(=O)NCCCC[C@H](NC(=O)[C@H](CCCCNC(=O)[C@H](CCCNC(=N)N)NC(=O)[C@H](Cc1ccc(O)cc1)NC(=O)[C@H](CC(C)C)NC(=O)[C@@H](N)CCCNC(=N)N)NC(=O)[C@H](CCCCNC(=O)[C@H](CCCNC(=N)N)NC(=O)[C@H](Cc1ccc(O)cc1)NC(=O)[C@H](CC(C)C)NC(=O)[C@@H](N)CCCNC(=N)N)NC(=O)[C@H](CCCCNC(=O)[C@H](CCCNC(=N)N)NC(=O)[C@H](Cc1ccc(O)cc1)NC(=O)[C@H](CC(C)C)NC(=O)[C@@H](N)CCCNC(=N)N)NC(=O)[C@H](CCCNC(=N)N)NC(=O)[C@H](Cc1ccc(O)cc1)NC(=O)[C@H](CC(C)C)NC(=O)[C@@H](N)CCCNC(=N)N)C(N)=O [K5R] (HELM PEPTIDE1{R.L.Y.R.K.K.K.K.[am]}|PEPTIDE2{R.L.Y.R}|PEPTIDE3{R.L.Y.R}|PEPTIDE4{R.L.Y.R}|PEPTIDE5{R.L.Y.R}$PEPTIDE1,PEPTIDE2,8:R3-4:R2|PEPTIDE1,PEPTIDE3,7:R3-4:R2|PEPTIDE1,PEPTIDE4,6:R3-4:R2|PEPTIDE1,PEPTIDE5,5:R3-4:R2$$$V2.0; N-terminus assumed)
0.5	0.6	0.6	0.9	7.8	8.2	6.4	1.9	6.2	1.2	0.8	0.6	9.2	0.7	3.8	1.0	> 500	2.2	2.0	0.8	CC(C)C[C@H](NC(=O)[C@@H](N)CCCNC(=N)N)C(=O)N[C@@H](Cc1ccc(O)cc1)C(=O)N[C@@H](CCCNC(=N)N)C(=O)NCCC[C@H](NC(=O)[C@H](CCCNC(=N)N)NC(=O)[C@H](Cc1ccc(O)cc1)NC(=O)[C@H](CC(C)C)NC(=O)[C@@H](N)CCCNC(=N)N)C(=O)NCCC[C@H](NC(=O)[C@H](CCCNC(=N)N)NC(=O)[C@H](Cc1ccc(O)cc1)NC(=O)[C@H](CC(C)C)NC(=O)[C@@H](N)CCCNC(=N)N)C(=O)NCCC[C@H](NC(=O)[C@H](CCCNC(=N)N)NC(=O)[C@H](Cc1ccc(O)cc1)NC(=O)[C@H](CC(C)C)NC(=O)[C@@H](N)CCCNC(=N)N)C(=O)NCCC[C@H](NC(=O)[C@H](CCCNC(=N)N)NC(=O)[C@H](Cc1ccc(O)cc1)NC(=O)[C@H](CC(C)C)NC(=O)[C@@H](N)CCCNC(=N)N)C(N)=O [iO5R] (HELM PEPTIDE1{R.L.Y.R.[Orn]}|PEPTIDE2{R.L.Y.R}|PEPTIDE3{R.L.Y.R.[Orn]}|PEPTIDE4{R.L.Y.R.[Orn]}|PEPTIDE5{R.L.Y.R.[Orn].[am]}$PEPTIDE1,PEPTIDE2,5:R3-4:R2|PEPTIDE1,PEPTIDE3,5:R2-5:R3|PEPTIDE3,PEPTIDE4,5:R2-5:R3|PEPTIDE4,PEPTIDE5,5:R2-5:R3$$$V2.0; N-terminus assumed)
0.7	0.8	0.6	1.1	1.0	0.6	0.6	0.6	0.8	0.7	0.7	1.0	0.8	0.7	0.7	0.9	1.3	1.0	0.8	0.7	CC(=O)N[C@@H](CCCCNC(=O)[C@H](CCCNC(=N)N)NC(=O)[C@H](Cc1ccc(O)cc1)NC(=O)[C@H](CC(C)C)NC(=O)[C@@H](N)CCCNC(=N)N)C(=O)N[C@@H](CCCCNC(=O)[C@H](CCCNC(=N)N)NC(=O)[C@H](Cc1ccc(O)cc1)NC(=O)[C@H](CC(C)C)NC(=O)[C@@H](N)CCCNC(=N)N)C(=O)N[C@@H](CCCCNC(=O)[C@H](CCCNC(=N)N)NC(=O)[C@H](Cc1ccc(O)cc1)NC(=O)[C@H](CC(C)C)NC(=O)[C@@H](N)CCCNC(=N)N)C(N)=O [K3R]
0.7	0.7	0.7	1.1	19.2	8.1	6.5	5.4	2.4	1.8	1.5	0.9	2.3	0.9	3.1	2.0	> 500	10.2	1.7	1.3	CC(C)C[C@H](NC(=O)[C@@H](N)CCCNC(=N)N)C(=O)N[C@@H](Cc1ccc(O)cc1)C(=O)N[C@@H](CCCNC(=N)N)C(=O)NCCC[C@H](NC(=O)[C@H](CCCNC(=O)[C@H](CCCNC(=N)N)NC(=O)[C@H](Cc1ccc(O)cc1)NC(=O)[C@H](CC(C)C)NC(=O)[C@@H](N)CCCNC(=N)N)NC(=O)[C@H](CCCNC(=O)[C@H](CCCNC(=N)N)NC(=O)[C@H](Cc1ccc(O)cc1)NC(=O)[C@H](CC(C)C)NC(=O)[C@@H](N)CCCNC(=N)N)NC(=O)[C@H](CCCNC(=O)[C@H](CCCNC(=N)N)NC(=O)[C@H](Cc1ccc(O)cc1)NC(=O)[C@H](CC(C)C)NC(=O)[C@@H](N)CCCNC(=N)N)NC(=O)[C@H](CCCNC(=N)N)NC(=O)[C@H](Cc1ccc(O)cc1)NC(=O)[C@H](CC(C)C)NC(=O)[C@@H](N)CCCNC(=N)N)C(N)=O [O5R] (HELM PEPTIDE1{R.L.Y.R.[Orn].[Orn].[Orn].[Orn].[am]}|PEPTIDE2{R.L.Y.R}|PEPTIDE3{R.L.Y.R}|PEPTIDE4{R.L.Y.R}|PEPTIDE5{R.L.Y.R}$PEPTIDE1,PEPTIDE2,8:R3-4:R2|PEPTIDE1,PEPTIDE3,7:R3-4:R2|PEPTIDE1,PEPTIDE4,6:R3-4:R2|PEPTIDE1,PEPTIDE5,5:R3-4:R2$$$V2.0; N-terminus assumed)

Reference: publication PMC10489980, “Design of Potent and Salt-Insensitive Antimicrobial Branched Peptides” (Polymers, 2023)
